Assay results taken from ChEMBL document CHEMBL1146474, “Design, synthesis, and bioactivities of steroid-linked taxol analogues as potential targeted drugs for prostate and breast cancer” (J Nat Prod, 2004).

Columns and labels:
[1] = Induction of tubulin assembly at 0.2 uM relative to taxol
[2] = Induction of tubulin assembly at 1 uM relative to taxol
[3] = test system: MDA-MB-231; test: Antiproliferative activity against human MDA-MB-231 cells assessed as inhibition of cell survival after 48 hrs by MTS method; assay type: functional
[4] = test system: MCF7; test: Antiproliferative activity against human MCF7 cells assessed as reduction of cell survival after 48 hrs by MTS method; assay type: functional
[5] = test system: MCF7; test: Antiproliferative activity against human MCF7 cells assessed as reduction of cell survival after 7 days by MTS method; assay type: functional
[6] = test system: A2780; test: cells; details: Homo sapiens, A2780, 48 h
[7] = test system: PC-3; test: cells; details: Homo sapiens, PC-3, 48 h
[8] = test system: MDA-MB-231; test: cells; details: Homo sapiens, MDA-MB-231, 48 h
[9] = test system: MCF7; test: cells; details: Homo sapiens, MCF7, 48 h

SMILES | Activity [1] [%] | Activity [2] [%] | inhibition (INH) [3] [%] | Activity [4] [%] | Activity [5] [%] | IC50 [6] [nM] | IC50 [7] [nM] | IC50 [8] [nM] | IC50 [9] [nM]
CC(=O)O[C@H]1C(=O)[C@@]2(C)[C@H]([C@H](OC(=O)c3ccccc3)[C@]3(O)C[C@H](OC(=O)[C@H](OC(=O)CCC(=O)O[C@@H]4C[C@]5(C)[C@@H](O)CC[C@H]5[C@@H]5CCc6cc(O)ccc6[C@H]54)[C@@H](NC(=O)c4ccccc4)c4ccccc4)C(C)=C1C3(C)C)[C@]1(OC(C)=O)CO[C@@H]1C[C@@H]2O | 60 | 60 |  |  |  |  |  |  | 
CC(=O)O[C@H]1C(=O)[C@@]2(C)[C@H]([C@H](OC(=O)c3ccccc3)[C@]3(O)C[C@H](OC(=O)[C@H](O)[C@@H](NC(=O)c4ccccc4)c4ccccc4)C(C)=C1C3(C)C)[C@]1(OC(C)=O)CO[C@@H]1C[C@@H]2O [PACLITAXEL] |  |  | 85 | 20 | 70 |  |  |  | 
CC(=O)O[C@H]1C(=O)[C@]2(C)[C@@H](OC(=O)CCC(=O)O[C@@H]3C[C@]4(C)[C@@H](O)CC[C@H]4[C@@H]4CCc5cc(O)ccc5[C@H]43)C[C@H]3OC[C@@]3(OC(C)=O)[C@H]2[C@H](OC(=O)c2ccccc2)[C@]2(O)C[C@H](OC(=O)[C@H](O)[C@@H](NC(=O)c3ccccc3)c3ccccc3)C(C)=C1C2(C)C | 100 | 100 | 85 | 20 | 70 | 2900 | 320 | 780 | 557
CC(=O)O[C@H]1C(=O)[C@@]2(C)[C@H]([C@H](OC(=O)c3ccccc3)[C@]3(O)C[C@H](OC(=O)[C@H](OC(=O)/C=C/C[C@@H]4C[C@H]5[C@@H]6CCc7cc(O)ccc7[C@H]6CC[C@]5(C)[C@H]4O)[C@@H](NC(=O)c4ccccc4)c4ccccc4)C(C)=C1C3(C)C)[C@]1(OC(C)=O)CO[C@@H]1C[C@@H]2O | 45 | 55 |  |  |  |  |  |  | 
CC(=O)O[C@H]1C(=O)[C@]2(C)[C@@H](OC(=O)/C=C/C[C@@H]3C[C@H]4[C@@H]5CCc6cc(O)ccc6[C@H]5CC[C@]4(C)[C@H]3O)C[C@H]3OC[C@@]3(OC(C)=O)[C@H]2[C@H](OC(=O)c2ccccc2)[C@]2(O)C[C@H](OC(=O)[C@H](O)[C@@H](NC(=O)c3ccccc3)c3ccccc3)C(C)=C1C2(C)C | 100 | 100 |  |  |  | 8300 | 120 | 2200 | 1600
CC(=O)O[C@@]12CO[C@@H]1C[C@H](O)[C@@]1(C)C(=O)[C@H](OC(=O)CCC(=O)O[C@@H]3C[C@]4(C)[C@@H](O)CC[C@H]4[C@@H]4CCc5cc(O)ccc5[C@H]43)C3=C(C)[C@@H](OC(=O)[C@H](O)[C@@H](NC(=O)c4ccccc4)c4ccccc4)C[C@@](O)([C@@H](OC(=O)c4ccccc4)[C@H]21)C3(C)C | 100 | 100 |  |  |  | 1900 | 68 | 304 | 103
